# In patent US12544359B2, “1-aminosulfonyl-2-carboxypyrrole derivatives as metallo-beta-lactamase inhibitors” (INFEX Therapeutics Limited, priority 2019, dated 2026):
# Structures can show the parent of a compound that is named as a salt.
# Key:
# [1] = Cytotoxicity Assay (CellTiter-Glo); assay type: cell-based; details: human, Hep G2 cells (ATCC HB-8065); 24 h exposure; read-out: HepG2 CC50
# Method: Cytotoxicity was evaluated in human Hep G2 cells (ATCC HB-8065) seeded at a density of 2×10^5 cells per well and incubated for 24 h at 37° C., 5% CO2. Cells were exposed to a doubling dilution series of test article. After 24 h exposure, the viability of the cells was determined using CellTiter-Glo® (Promega, WI, USA) according to the manufacturer's instructions. Results are reported as the concentration of test article required to reduce cell viability by 50% (CC50).
# NDM-1 = NDM-1 (Klebsiella pneumoniae, UniProt C7C422); assay: metallo-β-lactamase inhibition assay (nitrocefin); assay type: biochemical; details: 1.5 nM NDM-1, 100 μM nitrocefin, 37° C., pH 7.5
# Chain of NDM-1 (C7C422 whole entry, looked up, species assumed): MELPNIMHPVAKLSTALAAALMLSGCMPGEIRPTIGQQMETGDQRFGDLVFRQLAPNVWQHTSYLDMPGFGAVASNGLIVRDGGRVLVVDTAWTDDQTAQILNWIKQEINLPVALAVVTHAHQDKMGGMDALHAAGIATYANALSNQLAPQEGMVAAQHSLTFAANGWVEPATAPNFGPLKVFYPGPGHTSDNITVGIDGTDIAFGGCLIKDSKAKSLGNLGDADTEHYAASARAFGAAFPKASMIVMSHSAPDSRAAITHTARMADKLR
# Method: Compounds of the invention were tested in a metallo-β-lactamase inhibition assay to investigate mechanism of action of the compounds. Results are reported as the concentration of test article required to inhibit enzyme activity by 50% (IC50).
# Inhibition of metallo-β-lactamase enzyme function was performed at 37° C. in buffer at pH 7.5 (50 mM HEPES, 150 mM NaCl, 0.1 mM ZnSO4, 20 μg/mL PEG4000), containing 1.5 nM NDM-1, 100 μM nitrocefin, and a range of concentrations of compound. Absorbance at 490 nm was measured using a BMG LABTECH FLUOstar Omega microplate reader every minute for 30 minutes. IC50s were determined from the average increase in OD per minute versus the Log 10 concentration of compound using GraphPad Prism.
# [2] = system: Cerep SafetyScreen44 Panel (44 targets); assay: off-target inhibition, Cerep SafetyScreen44 Panel
# Method: Compounds were also tested for off-target inhibition in a Cerep SafetyScreen44 Panel.
# [3] = solubility study in saline, identified visually; assay type: physicochemical; details: 2 mg in 40 μL saline (50 mg/mL), visual; free base unless indicated
# Method: Compounds were also tested in a solubility study. Each sample (2 mg) was weighed into a clear 1.75 mL vial followed by the addition of saline (40 μL, to make up to 50 mg/mL). Unless indicated otherwise, the compounds were tested as the free base. Each resulting mixture was vortexed (if required) and the solubility of each was identified visually.
# [4] = system: K. pneumoniae ATCC BAA2146 NDM-1; assay: Meropenem combination MIC; assay type: cell-based; details: meropenem only (baseline)
# Method: (§1) MICs were determined by exposing bacteria to serial dilutions of antibacterial agents in MHB-II (cation-adjusted Mueller-Hinton Broth pH 7.4) according to Clinical and Laboratory Standards Institute (CLSI) broth microdilution guidelines (Cockerill et al., 2012).
# (§2) Combination MIC were performed as described for MIC determinations with the addition of 4 mg/L test article to MHB-II.
# (§3) The compounds of the invention were tested against a primary panel of bacterial strains, columns I-V of Table 2. As appropriate, compounds considered suitable for further investigation were tested against a secondary panel of bacterial strains, columns VI and VII of Table 2.
# [5] = system: K. pneumoniae NCTC13439 VIM-1; assay: Meropenem combination MIC; assay type: cell-based; details: meropenem only (baseline)
# Method: as §1, §2, §3
# A. baumannii SG698 NDM-1 = assay: Meropenem combination MIC; assay type: cell-based; details: meropenem only (baseline)
# Method: as §1, §2, §3
# [6] = system: K. pneumoniae NCTC13440 VIM-1; assay: Meropenem combination MIC; assay type: cell-based; details: meropenem only (baseline)
# Method: as §1, §2, §3
# E. coli NCTC13476 IMP = assay: Meropenem combination MIC; assay type: cell-based; details: meropenem only (baseline)
# Method: as §1, §2, §3
# [7] = system: E. coli ATCCBAA-2452 NDM-1; assay: Meropenem combination MIC; assay type: cell-based; details: meropenem only (baseline)
# Method: as §1, §2, §3
SMILES,IC50 (NDM-1) [nM],CC50 at 24 h [1] [µg/mL],also measured
"CNCCN(C)C(=O)c1ccc(-c2ccn(S(N)(=O)=O)c2C(=O)O)cc1 [Example 25, 3-[4-[Methyl-[2-(methylamino)ethyl]carbamoyl]phenyl]-1-sulfamoyl-pyrrole-2-carboxylic acid]",319,> 256,Number of targets ≥50% inhibition at 100 μM [2]: 0; Solubility [3]: Soluble
"NCC1CCN(C(=O)c2ccc(-c3ccn(S(N)(=O)=O)c3C(=O)O)cc2)CC1 [Example 44, 3-[4-[4-(Aminomethyl)piperidine-1-carbonyl]phenyl]-1-sulfamoyl-pyrrole-2-carboxylic acid]",187,> 256,
"CC(=O)N1CCC(c2ccn(S(N)(=O)=O)c2C(=O)O)C1 (centres unmarked) [Example 59, 3-[1-Acetylpyrrolidin-3-yl]-1-sulfamoyl-pyrrole-2-carboxylic acid]",1610,> 256,
"C[C@H](N)C(=O)N1CCC(c2ccn(S(N)(=O)=O)c2C(=O)O)CC1 [Example 69, 3-[1-[(2S)-2-Aminopropanoyl]-4-piperidyl]-1-sulfamoyl-pyrrole-2-carboxylic acid]",1480,> 256,Number of targets ≥50% inhibition at 100 μM [2]: 0; Solubility [3]: Soluble
"NS(=O)(=O)n1ccc(C2CCN(C(=O)[C@@H]3CCCN3)CC2)c1C(=O)O [Example 73, 3-[1-[(2S)-Pyrrolidine-2 carbonyl]-4-piperidyl]-1-sulfamoyl-pyirole-2-carboxylic acid]",568,> 256,
"NS(=O)(=O)n1ccc(C2CCN(C(=O)C3CNC3)CC2)c1C(=O)O [Example 74, 3-[1-(Azetidine-3-carbonyl)-4-piperidyl]-1-sulfamoyl-pyrrole-2-carboxylic acid]",1550,> 256,
"NCCN1CCC(c2ccn(S(N)(=O)=O)c2C(=O)O)CC1 [Example 85, 3-[1-(2-Aminoethyl)-4-piperidyl]-1-sulfamoyl-pyrrole-2-carboxylic acid]",399,> 128,
"CNCCN(C)C(=O)C1CCC(c2ccn(S(N)(=O)=O)c2C(=O)O)CC1 (centres unmarked) [Example 87, 3-[4-[Methyl-[2-(methylamino)ethyl]carbamoyl]cyclohexyl]-1-sulfamoyl-pyrrole-2-carboxylic acid]",248,> 256,
"NCC(=O)Nc1ccc(-c2ccn(S(N)(=O)=O)c2C(=O)O)cn1 [Example 93, 3-[6-[(2-Aminoacetyl)amino]-3-pyridyl]-1-sulfamoyl-pyrrole-2-carboxylic acid, sodium salt]",162,> 256,
"C[C@@H](O)[C@H]1C(=O)N2C(C(=O)O)=C(S[C@@H]3CN[C@H](C(=O)N(C)C)C3)[C@H](C)[C@H]12 [Meropenem, meropenem]",,,Meropenem MIC (μg/mL) III K. pneumoniae ATCC BAA2146 NDM-1 [4]: 16 µg/mL; Meropenem MIC (μg/mL) VII K. pneumoniae NCTC13439 VIM-1 [5]: 0.5 µg/mL; Meropenem MIC (μg/mL) IV A. baumannii SG698 NDM-1 (A. baumannii SG698 NDM-1): 8 µg/mL; Meropenem MIC (μg/mL) V K. pneumoniae NCTC13440 VIM-1 [6]: 1 µg/mL; Meropenem MIC (μg/mL) II E. coli NCTC13476 IMP (E. coli NCTC13476 IMP): 4 µg/mL; Meropenem MIC (μg/mL) I E. coli ATCCBAA-2452 NDM-1 [7]: 1 µg/mL

# More lines, main results first:
IC50 (NDM-1) [nM],SMILES,CC50 at 24 h [1] [µg/mL],also measured
163,"NCCNC(=O)c1cccc(-c2ccn(S(N)(=O)=O)c2C(=O)O)c1 [Example 47, 3-[3-(2-Aminoethylcarbamoyl)phenyl]-1-sulfamoyl-pyrrole-2-carboxylic acid hydrochloride]",> 256,
1760,"NCC(=O)N1CCCC(c2ccn(S(N)(=O)=O)c2C(=O)O)C1 (centres unmarked) [Example 63, 3-[1-(2-Aminoacetyl)-3-piperidyl]-1-sulfamoyl-pyrrole-2-carboxylic acid]",> 256,
1570,"N[C@@H](CO)C(=O)N1CCC(c2ccn(S(N)(=O)=O)c2C(=O)O)CC1 [Example 72, 3-[1-[(2S)-2-Amino-3-hydroxy-propanoyl]-4-piperidyl]-1-sulfamoyl-pyrrole-2-carboxylic acid]",> 256,
2490,"NCCC(=O)Nc1ccc(-c2ccn(S(N)(=O)=O)c2C(=O)O)cn1 [Example 94, 3-[6-(3-Aminopropanoylamino)-3-pyridyl]-1-sulfamoyl-pyrrole-2-carboxylic acid, sodium salt]",> 256,
377,"NCCNc1ccc(-c2ccn(S(N)(=O)=O)c2C(=O)O)cn1 [Example 95, 3-[6-(2-Aminoethylamino)-3-pyridyl]-1-sulfamoyl-pyrrole-2-carboxylic acid hydrochloride]",> 256,
